PubChem BioAssay (NCI)
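These data come from cells grown in 96-well plates and exposed to compound for 48 hours at five concentrations. GI50 is the concentration that inhibits growth by half. At the TGI there is no net growth.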

Tests used:
Assay in all cases: NCI tumour cell line growth inhibition, 48 h
786-0 renal = system: 786-0 renal
SW-620 colon = system: SW-620 colon
MALME-3M melanoma = system: MALME-3M melanoma
SR leukemia = system: SR leukemia
SF-268 CNS = system: SF-268 CNS
UACC-257 melanoma = system: UACC-257 melanoma
OVCAR-8 ovarian = system: OVCAR-8 ovarian
NCI-H226 lung = system: NCI-H226 lung
M14 melanoma = system: M14 melanoma
RPMI-8226 leukemia = system: RPMI-8226 leukemia

Row | SMILES | GI50 (786-0 renal) [µM] | TGI (786-0 renal) [µM] | GI50 (SW-620 colon) [µM] | TGI (SW-620 colon) [µM] | GI50 (MALME-3M melanoma) [µM] | TGI (MALME-3M melanoma) [µM] | GI50 (SR leukemia) [µM] | TGI (SR leukemia) [µM] | GI50 (SF-268 CNS) [µM] | TGI (SF-268 CNS) [µM] | GI50 (UACC-257 melanoma) [µM] | TGI (UACC-257 melanoma) [µM] | GI50 (OVCAR-8 ovarian) [µM] | TGI (OVCAR-8 ovarian) [µM] | GI50 (NCI-H226 lung) [µM] | TGI (NCI-H226 lung) [µM] | GI50 (M14 melanoma) [µM] | TGI (M14 melanoma) [µM] | GI50 (RPMI-8226 leukemia) [µM] | TGI (RPMI-8226 leukemia) [µM]
1 | COc1ccc2c(c1)C(=O)/C(=C/c1cccc(OCC(=O)c3ccccc3)c1)O2 | 4.59 | 17.5 | 1.77 | 3.43 | 1.95 | 4.8 | 1.47 | 3.26 | 4.25 | 16.6 | 18.8 | 33.5 | 16.4 | 31.4 | 15.9 | 43.5 |  |  |  | 
2 | CN(C)C/C=C/C(=O)Nc1ccc(C(=O)N[C@@]2(C)CCC[C@@H](Nc3ncc(Cl)c(-c4c[nH]c5ccccc45)n3)C2)nc1 | < 0.0146 | 0.236 | < 0.0106 | 0.36 |  |  | < 0.01 | 1.09 |  |  | < 0.01 | 0.121 | 0.0154 | 1.19 |  |  | < 0.01 | 0.0282 | < 0.01 | 0.0244
3 | CC(=O)Oc1c(C)c(-c2ccccc2)c(C)c(-c2ccccc2)c1C(=S)c1ccccc1 |  | > 100 |  |  |  | > 100 |  | > 100 |  | > 100 |  | > 100 |  | > 100 |  | > 100 |  | > 100 |  | > 100
4 | COc1ccc(C=O)cc1O[Si](C)(C)C(C)(C)C |  | > 100 |  | > 100 |  | > 100 |  |  |  | > 100 |  | > 100 |  | > 100 |  |  |  | > 100 |  | > 100
5 | COC(=O)C(=O)CC(=O)CCn1[nH]c(=O)c(Cl)c(Cl)c1=O |  | > 100 |  | > 100 |  | > 100 |  |  |  | > 100 |  | > 100 |  | > 100 |  | > 100 |  | > 100 |  | 
6 | CCCC1(CC(=O)O)OCCc2c1[nH]c1ccccc21 (centres undefined) |  | > 100 |  | > 100 |  | > 100 |  |  |  | > 100 |  | > 100 |  | > 100 |  | > 100 |  | > 100 |  | > 100
7 | COc1ccc2c(c1)C(=O)CCc1cc(OC)c(OC)c(OC)c1-2 | < 0.01 | > 100 | < 0.01 | > 100 |  |  |  |  | 0.0652 | > 100 |  | > 100 | < 0.01 |  | < 0.01 |  | < 0.01 | > 100 | < 0.01 | > 100
8 | COc1ccc(NC(=O)CC/C(CC(=O)c2ccco2)=N/NC(=O)C(N)=O)cc1 |  | > 100 |  | > 100 |  | > 100 |  |  |  | > 100 |  | > 100 |  | > 100 |  | > 100 |  | > 100 |  | > 100
9 | CC1(O)C(C)(O)C2(C)O[Te]3(OC12C)OC1(C)C(C)(O)C(C)(O)C1(C)O3 (centres undefined) |  | > 100 |  |  |  | > 100 |  | 51.3 |  |  |  | > 100 |  | 32 |  | 89.2 |  | > 100 |  | 37.9
10 | O=C(Nc1ccc(Cl)cc1)C1C(=O)C(=O)N(c2ccc(Cl)cc2)C1=O (centres undefined) |  | > 100 |  | > 100 |  | > 100 |  | > 100 |  | > 100 |  |  |  | > 100 |  | > 100 |  | > 100 |  | > 100
11 | CC(C)(C)c1cc([N+](=O)[O-])cc([N+](=O)[O-])c1O |  | > 10 |  | > 10 |  |  |  | > 10 |  | > 10 |  | > 10 |  | > 10 |  | > 10 |  | > 10 |  | > 10
12 | N#CCC(=O)N/N=C1/C(=O)N(c2ccc(Cl)cc2)C(=O)C(=O)C1c1nc2ccccc2s1 (centres undefined) |  | > 100 |  | > 100 |  | > 100 |  |  |  | > 100 |  | > 100 |  | > 100 |  | > 100 |  | > 100 |  | 
13 | CC(C)CNc1nc(-c2ccccc2Cl)nc2ccccc12 | 16.8 | 30.4 |  |  | 12.4 | 25.9 | 19.7 | 44.9 | 22.1 | 40.4 |  |  | 17.2 | 38.9 | 17.7 | 35 | 19.5 | 35.1 | 12.6 | 32.7
14 | CCOC(=O)[CH-]C(=O)C12CC3CC(CC(C3)C1)C2.CCOC(=O)[CH-]C(=O)C12CC3CC(CC(C3)C1)C2.CC[O-].CC[O-].[Ti+4] | > 100 | > 100 | > 100 | > 100 | > 100 | > 100 | > 100 | > 100 | > 100 | > 100 | > 100 | > 100 | > 100 | > 100 |  |  | > 100 | > 100 | > 100 | > 100
15 | Cc1ccc(S(=O)(=O)OC2CC=CC2)cc1 |  | > 100 |  | > 100 |  | > 100 |  |  |  |  |  | > 100 |  | > 100 |  | > 100 |  | > 100 |  | > 100
16 | Cn1c(Cl)c(/C=C2/C(=O)Nc3ccccc32)c2ccccc21 | 1.32 | 20.5 | 0.299 | 14.7 | 0.179 | 15.3 |  |  | 4.08 | > 35.7 | 10.7 | 37.8 | 1.7 | > 37.1 | 1.83 | 21.9 | 0.248 | 5.46 | 0.582 | 4.6
17 | O=C1C=C(Nc2ccccc2C(=O)CC(=O)C(=O)Nc2cccc([N+](=O)[O-])c2)c2ccccc2C1=O |  | > 100 |  | 87 |  | 46.7 |  |  |  | 88.6 |  | 78.5 |  | > 100 |  | > 100 |  | > 100 |  | 53.6
18 | CN(C)CCOc1ccc([N+](=O)[O-])c2cccnc12 |  | > 100 |  | > 100 |  | > 100 |  | > 100 |  | > 100 |  | > 100 |  | > 100 |  | > 100 |  | > 100 |  | 
19 | COc1ccc2c(c1)OC1=C(C(=O)OC1)C2c1cc(OC)c2c(c1)OCCO2 (centres undefined) | 0.068 | > 23.1 | 0.0393 | > 100 |  |  | 0.0318 | > 100 | 0.156 | > 100 | 0.0458 | > 100 | 0.0712 | > 100 |  |  | 0.0566 | > 100 | 0.0871 | > 100
